In patent US12679878B2, “CRF2 receptor agonists and their use in therapy” (SANOFI, priority 2020, dated 2026):
One block for each molecule: values may come before it. Starred links: 1 amine or outer side, 2 acyl side, 3 side chain; linkers in the order of their positions; H or OH if unused. Residues, ends and D or L forms follow the SMILES beside them. Groups on a side chain read outwards from the residue. No end group written: not given here. *: point of attachment. C18 diacid = O=C(O)CCCCCCCCCCCCCCCCC(=O)*; γGlu = O=C(O)[C@H](CCC(=O)[*:2])N[*:1]; Palmitoyl = CCCCCCCCCCCCCCCC(=O)*; AEEA = NCCOCCOCC(=O)O

Experiments:
[1] = Effect on body mass, body fat content and food intake in high-fat diet fed (DIO) mice (Example 18); assay type: in vivo, C57BL/6N Crl mice
Procedure: The peptide of SEQ ID NO: 35 was assessed for its ability to reduce body mass and body fat content in mice. Its efficacy was compared with that of a reference compound, namely the compound of Example 4 of WO2018013803 (Alsina-Fernandez; Eli Lilly and Company), referred to herein as “Compound A”.
Female C57BL/6N Crl mice were group housed under vivarium conditions that included a 12 h light/dark cycle and a room temperature of 23±1° C. All animals had free access to water and diet (Ssniff adjusted high fat diet: TD.97366, Soest, Germany) for 18 weeks prior to pharmacological intervention (dosing phase). After the pre-feeding period, mice were single housed and randomized according to body weight to treatment groups with n=8, so that each group has similar mean body weight. At the start of the study, mice were between 25-26 weeks old with body weight of 42-50 g. Mice were treated every second day during late afternoon hours prior lights off with a subcutaneous injection of 8 nmol/kg of the test compounds or their vehicle (phosphate-buffered saline (PBS). Body weight and food intake were measured daily throughout the dosing phase while body fat content was measured at day 0 prior to the start of treatment and at day 15. The study was terminated on day 15.
For statistical analyses a One-Way Analysis of Variance (ANOVA) was performed with SigmaStat 3.5. The test was performed with a risk alpha of 0.050 and a comparison versus the high fat diet-Vehicle group was performed with Dunnett's tests.

[2] = Effect on blood pressure, telemetry (Example 17); assay type: in vivo; conditions: Sprague Dawley rats, 0.1 mg/kg SC
Procedure: The effect of the compounds on blood pressure was determined in telemetry studies in Sprague Dawley rats at a dosage of 0.1 mg/kg SC.
The rats were previously implanted with a telemetry device (DSI, Saint-Paul, USA, HD-S10, HD-S11 or HD S21) and allowed to recover for a minimum period of 2 weeks before treatment with vehicle or the different peptides. Blood pressure (BP) was recorded through a catheter inserted into the abdominal aorta. The device body was placed in the abdomen. At the end of surgery, animals were placed in individual cages until the end of the study.
Pressure signals were recorded for one hour before the treatment (basal period). Thereafter, the subcutaneous administration of the test compound or its vehicle was performed, under continuous recording of the signal over a 48-hour period. Data acquisition was performed using Hem 4.3 acquisition software (Notocord®, Le Pecq, France) connected to the telemetry device. Hemodynamic parameters were recorded during a […] before treatment and every 4-hour period following subcutaneous administration over 48 hours.
Investigated parameters (calculated from BP signal) were Heart Rate (HR) in beats per minute (bpm), Diastolic and Systolic Blood Pressure (DBP) in mmHg, and Mean Blood Pressure (MBP) in mmHg.
Data from Hem were manipulated using Microsoft Excel®. For each parameter, a basal value was determined as the average calculated over a 1-hour period during the pre-treatment sequence, and the values post treatment were calculated over 4-hour periods ([0-4], [4-8], [8-12], [12-16], [16-20], [20-24], [24-28], [32-36], [36-40], [40-44] and [44-48] hours) covering the 48-hour period following administration.
Representative data are presented in Table 15 below, in which “n” represents the number of animals for which individual values were obtained and “Duration” indicates the last time point for which a significant effect on BP was still seen: Table 15

[3] = target: rat CRF2R α receptor (rat, UniProt P47866 20-411); test: cell-based or functional assay
[4] = target: T1, recombinant human CRF2 (HEK cell membranes) (human, UniProt Q13324 1-411); test: Hill coefficient of the competition curve against [125]sauvagine, HEK membranes with recombinant human CRF2
T1 construct: Whole receptor in membranes prepared from HEK cells; also called CRF2a (h); CRF2 receptor
T1 sequence (looked up): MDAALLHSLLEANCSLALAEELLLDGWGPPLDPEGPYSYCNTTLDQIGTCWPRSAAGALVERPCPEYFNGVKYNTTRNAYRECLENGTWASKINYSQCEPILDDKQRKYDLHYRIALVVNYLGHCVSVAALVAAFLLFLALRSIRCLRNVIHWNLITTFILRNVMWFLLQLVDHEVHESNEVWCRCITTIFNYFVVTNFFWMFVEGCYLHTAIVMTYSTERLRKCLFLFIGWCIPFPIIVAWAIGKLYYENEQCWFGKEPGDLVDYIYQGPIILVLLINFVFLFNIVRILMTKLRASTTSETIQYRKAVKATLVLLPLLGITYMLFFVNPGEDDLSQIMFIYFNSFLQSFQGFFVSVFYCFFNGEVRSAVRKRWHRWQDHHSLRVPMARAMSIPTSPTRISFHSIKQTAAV
Procedure: (§1) HEK cells expressing recombinant human CRF2 were used as a source of receptor for membrane preparation.
(§2) IC50 values (concentration causing a half-maximal inhibition of control specific binding) and Hill coefficients (nH) were determined by non-linear regression analysis of the competition curves generated with mean replicate values using Hill equation curve fitting. The inhibition constants (Ki) were calculated using the Cheng Prusoff equation [Ki=IC50/(1+L/KD) where L is the concentration of radioligand in the assay, and KD is the affinity of the radioligand for the receptor). A Scatchard plot was used to determine the KD.

[5] = target: T2, anti-target CRF1R receptor (UniProt P34998 24-415, limits assumed); test: cell-based or functional assay
T2 sequence (looked up): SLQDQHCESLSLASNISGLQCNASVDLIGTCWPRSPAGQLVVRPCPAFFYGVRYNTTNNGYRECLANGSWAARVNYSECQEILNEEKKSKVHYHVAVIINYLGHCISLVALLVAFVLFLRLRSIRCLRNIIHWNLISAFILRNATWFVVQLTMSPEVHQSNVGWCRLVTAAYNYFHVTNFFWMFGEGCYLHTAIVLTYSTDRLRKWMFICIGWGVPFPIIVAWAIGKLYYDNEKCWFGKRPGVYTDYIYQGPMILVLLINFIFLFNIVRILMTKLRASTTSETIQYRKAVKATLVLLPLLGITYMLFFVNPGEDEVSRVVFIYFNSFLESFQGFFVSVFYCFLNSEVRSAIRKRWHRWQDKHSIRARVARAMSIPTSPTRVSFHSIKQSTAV

[6] = target: T1, recombinant human CRF2 (HEK cell …); test: radioligand competition against [125]sauvagine (0.1 nM), HEK membranes with recombinant human CRF2; Cheng Prusoff
Procedure: as §1, §2

Molecule: CC[C@H](C)[C@H](N)C(=O)N[C@H](C(=O)N[C@@H](CC(C)C)C(=O)N[C@@H](CO)C(=O)N[C@@H](CC(C)C)C(=O)N[C@@H](CC(=O)O)C(=O)N[C@H](C(=O)N1CCC[C@H]1C(=O)N[C@H](C(=O)N[C@@H](CCCCN)C(=O)N[C@@H](CC(C)C)C(=O)N[C@@H](CCCCNC(=O)COCCOCCNC(=O)COCCOCCNC(=O)CC[C@H](NC(=O)CCCCCCCCCCCCCCCCC(=O)O)C(=O)O)C(=O)N[C@@H](CCCCN)C(=O)N[C@H](C(=O)N[C@@H](CC(C)C)C(=O)N[C@@H](CC(C)C)C(=O)N[C@@H](CCC(=O)O)C(=O)N[C@@H](CCC(N)=O)C(=O)N[C@@H](CCC(=O)O)C(=O)N[C@@H](CCCCN)C(=O)N[C@@H](CCC(N)=O)C(=O)N[C@@H](CCCCN)C(=O)N[C@@H](CCCCN)C(=O)N[C@@H](CCC(N)=O)C(=O)N[C@@H](CCCNC(=N)N)C(=O)N[C@@H](CCC(=O)O)C(=O)N[C@@H](CCC(N)=O)C(=O)N[C@@H](C)C(=O)N[C@@H](CCC(=O)O)C(=O)N[C@H](C(=O)N[C@@H](CC(N)=O)C(=O)N[C@@H](CCCCN)C(=O)N[C@@H](CCC(N)=O)C(=O)N[C@H](C(=O)N[C@@H](CC(C)C)C(=O)N[C@@H](C)C(=O)N[C@@H](CCC(N)=O)C(=O)N[C@H](C(N)=O)C(C)C)[C@@H](C)CC)[C@@H](C)O)[C@@H](C)CC)[C@@H](C)CC)C(C)C)C(C)C [SEQ ID NO: 35] (H-IVLSLDVPIKLK([AEEA-AEEA-γGlu-C18 diacid])KILLEQEKQKKQREQAETNKQILAQV-NH2)
cumulative food intake over 15 days ([1]; 8 nmol/kg s.c. every second day): 39.3 ± 2.5 g
lean mass change ([1]; 8 nmol/kg s.c. every second day, 15 days): −6.3±1.7%
relative body weight change ([1]; 8 nmol/kg s.c. every second day, 15 days, mean±SEM): −10.8±1.4%
reduction in body fat content ([1]; 8 nmol/kg s.c. every second day, day 15 vs day 0): −34.2±2.9%
food intake after first administration ([1]; 8 nmol/kg s.c., normalized after second treatment (FIG. 1)): meaningful reduction of food intake
Duration (h): last time point for which a significant effect on BP was still seen [2]: 30 h
Effect on Systolic Pressure % change from baseline 8 h ([2]; 8 h): −14.1%
Effect on Systolic Pressure % change from baseline 24 h ([2]; 24 h): −5.0%

EC50 [nM], 0% HSA (cAMP, A7R5 cells) [3]: 0.87 nM
nH [4]: 0.8
EC50[nM] 0% HSA (cAMP, CRF1R-overexpression CHO cells) [5]: > 1000 nM
Emax (%) (cAMP, CRF1R-overexpression CHO cells) [5]: 3.38%
B1: peptide of SEQ ID NO: 51 (peptide)
peptide: FTLSLDVPTKIK([AEEA-AEEA-γGlu-C18 diacid])QILLKQQKQKKERQQAEKNKQLLEQI-NH2
modifications: N-terminus assumed
SMILES: CC[C@H](C)[C@H](NC(=O)[C@H](CCC(N)=O)NC(=O)[C@H](CCC(=O)O)NC(=O)[C@H](CC(C)C)NC(=O)[C@H](CC(C)C)NC(=O)[C@H](CCC(N)=O)NC(=O)[C@H](CCCCN)NC(=O)[C@H](CC(N)=O)NC(=O)[C@H](CCCCN)NC(=O)[C@H](CCC(=O)O)NC(=O)[C@H](C)NC(=O)[C@H](CCC(N)=O)NC(=O)[C@H](CCC(N)=O)NC(=O)[C@H](CCCNC(=N)N)NC(=O)[C@H](CCC(=O)O)NC(=O)[C@H](CCCCN)NC(=O)[C@H](CCCCN)NC(=O)[C@H](CCC(N)=O)NC(=O)[C@H](CCCCN)NC(=O)[C@H](CCC(N)=O)NC(=O)[C@H](CCC(N)=O)NC(=O)[C@H](CCCCN)NC(=O)[C@H](CC(C)C)NC(=O)[C@H](CC(C)C)NC(=O)[C@@H](NC(=O)[C@H](CCC(N)=O)NC(=O)[C@H](CCCCNC(=O)COCCOCCNC(=O)COCCOCCNC(=O)CC[C@H](NC(=O)CCCCCCCCCCCCCCCCC(=O)O)C(=O)O)NC(=O)[C@@H](NC(=O)[C@H](CCCCN)NC(=O)[C@@H](NC(=O)[C@@H]1CCCN1C(=O)[C@@H](NC(=O)[C@H](CC(=O)O)NC(=O)[C@H](CC(C)C)NC(=O)[C@H](CO)NC(=O)[C@H](CC(C)C)NC(=O)[C@@H](NC(=O)[C@@H](N)Cc1ccccc1)[C@@H](C)O)C(C)C)[C@@H](C)O)[C@@H](C)CC)[C@@H](C)CC)C(N)=O

Ki [6]: 4.4 nM
nH [4]: 1.5
B2: peptide of SEQ ID NO: 17 (peptide)
peptide: IVLSLDVPIKLK([γGlu-Palmitoyl])KILLEQEKQKKQREQAETNKQILAQV-NH2
modifications: N-terminus assumed
SMILES: CCCCCCCCCCCCCCCC(=O)N[C@@H](CCC(=O)NCCCC[C@H](NC(=O)[C@H](CC(C)C)NC(=O)[C@H](CCCCN)NC(=O)[C@@H](NC(=O)[C@@H]1CCCN1C(=O)[C@@H](NC(=O)[C@H](CC(=O)O)NC(=O)[C@H](CC(C)C)NC(=O)[C@H](CO)NC(=O)[C@H](CC(C)C)NC(=O)[C@@H](NC(=O)[C@@H](N)[C@@H](C)CC)C(C)C)C(C)C)[C@@H](C)CC)C(=O)N[C@@H](CCCCN)C(=O)N[C@H](C(=O)N[C@@H](CC(C)C)C(=O)N[C@@H](CC(C)C)C(=O)N[C@@H](CCC(=O)O)C(=O)N[C@@H](CCC(N)=O)C(=O)N[C@@H](CCC(=O)O)C(=O)N[C@@H](CCCCN)C(=O)N[C@@H](CCC(N)=O)C(=O)N[C@@H](CCCCN)C(=O)N[C@@H](CCCCN)C(=O)N[C@@H](CCC(N)=O)C(=O)N[C@@H](CCCNC(=N)N)C(=O)N[C@@H](CCC(=O)O)C(=O)N[C@@H](CCC(N)=O)C(=O)N[C@@H](C)C(=O)N[C@@H](CCC(=O)O)C(=O)N[C@H](C(=O)N[C@@H](CC(N)=O)C(=O)N[C@@H](CCCCN)C(=O)N[C@@H](CCC(N)=O)C(=O)N[C@H](C(=O)N[C@@H](CC(C)C)C(=O)N[C@@H](C)C(=O)N[C@@H](CCC(N)=O)C(=O)N[C@H](C(N)=O)C(C)C)[C@@H](C)CC)[C@@H](C)O)[C@@H](C)CC)C(=O)O
